In US5362743A, “Aminoquinoline derivatives” (Pfizer Inc., priority 1993, dated 1994):

Tests used:
gastric H^+ /K^+ -ATPase = target: T1, gastric H^+ /K^+ -ATPase (Sus scrofa, UniProt P19156); experiment: gastric H+/K+-ATPase inhibition in isolated porcine gastric microsomes (phosphate release); assay type: biochemical
T1 construct: preparing the microsomes from hog gastric mucosa; from tissue; host or cells: hog gastric mucosa (microsomes)
Experimental: The activity of the compounds of the present invention as anti-ulcer agents, useful in the treatment of gastric disease in mammals, such as peptic ulcers, etc., is assessed by their ability to inhibit gastric H^+ /K^+ -ATPase, using isolated porcine gastric microsomes and essentially employing a modification of the method first described by G. Saccomani et al., as initially reported in Biochimica Biophysica Acta, Vol. 465, p. 311 (1977). The modification involves preparing the microsomes from hog gastric mucosa according to the procedure first described by L-A. Yeh et al., in Membrane Biochemistry, Vol. 9, p. 129 (1991). The H^+ /K^+ -ATPase enzyme activity is assayed according to the procedure described by N. Chang et al., in Biochimica Biophysica Acta, Vol. 464, p. 313 (1977), using a medium containing […], 3 mM ATP, 50 mM Tris-HCl (pH 7.4) and 2 mM MgCl2 with or without 10 mM KCl in a final volume of 1.1 mL. The incubation step is initially carried out at 37° C. for a period of 15 minutes. The reaction is then terminated by the addition of 100 μL of 50% TCA (trichloroacetic acid). Phosphate release is next measured spectrophotometrically in the manner described by C. H. Fiske et al., in the Journal of Biological Chemistry, Vol. 66, p. 375 (1925).

osteoclasts = experiment: bone slice assay: bone resorption by isolated osteoclasts (scanning electron microscopy); assay type: cell-based, neonatal rat; details: isolated osteoclasts on bone slices
Experimental: 155, (1985), as well as in Endocrinology, Vol. 116, p. 234 (1985). In this assay, osteoclasts are mechanically disaggregated from neonatal rat long bones into Hepes-buffered medium 199 (available from Flow Laboratories of Irvine, […] in the United Kingdom). The suspension is agitated with a pipette and the larger fragments were allowed to settle for a period of 30 seconds. The cells are then added to two wells of a multiwell-dish containing bone slices, with each of said slices measuring 2.5 mm^2. After incubating at 37° C. for a period of 15 minutes, the aforesaid bone slices are then removed, washed in medium 199 and placed in individual wells of a 96-well plate (also available from Flow Laboratories). These latter bone slices are then incubated overnight in a total volume of […] of culture medium consisting of 10% newborn calf-serum (from Flow Laboratories) in Hanks-buffered MEM (also from Flow Laboratories) in the presence or absence of the test compound. Bone resorption is quantified by means of scanning electron microscopy. […] The number and size of the osteoclastic excavations, and the plan area of bone resorbed is recorded. Differences between groups are then analyzed by means of Student's t-Test.

T1 sequence (P19156 2-1034 limits assumed): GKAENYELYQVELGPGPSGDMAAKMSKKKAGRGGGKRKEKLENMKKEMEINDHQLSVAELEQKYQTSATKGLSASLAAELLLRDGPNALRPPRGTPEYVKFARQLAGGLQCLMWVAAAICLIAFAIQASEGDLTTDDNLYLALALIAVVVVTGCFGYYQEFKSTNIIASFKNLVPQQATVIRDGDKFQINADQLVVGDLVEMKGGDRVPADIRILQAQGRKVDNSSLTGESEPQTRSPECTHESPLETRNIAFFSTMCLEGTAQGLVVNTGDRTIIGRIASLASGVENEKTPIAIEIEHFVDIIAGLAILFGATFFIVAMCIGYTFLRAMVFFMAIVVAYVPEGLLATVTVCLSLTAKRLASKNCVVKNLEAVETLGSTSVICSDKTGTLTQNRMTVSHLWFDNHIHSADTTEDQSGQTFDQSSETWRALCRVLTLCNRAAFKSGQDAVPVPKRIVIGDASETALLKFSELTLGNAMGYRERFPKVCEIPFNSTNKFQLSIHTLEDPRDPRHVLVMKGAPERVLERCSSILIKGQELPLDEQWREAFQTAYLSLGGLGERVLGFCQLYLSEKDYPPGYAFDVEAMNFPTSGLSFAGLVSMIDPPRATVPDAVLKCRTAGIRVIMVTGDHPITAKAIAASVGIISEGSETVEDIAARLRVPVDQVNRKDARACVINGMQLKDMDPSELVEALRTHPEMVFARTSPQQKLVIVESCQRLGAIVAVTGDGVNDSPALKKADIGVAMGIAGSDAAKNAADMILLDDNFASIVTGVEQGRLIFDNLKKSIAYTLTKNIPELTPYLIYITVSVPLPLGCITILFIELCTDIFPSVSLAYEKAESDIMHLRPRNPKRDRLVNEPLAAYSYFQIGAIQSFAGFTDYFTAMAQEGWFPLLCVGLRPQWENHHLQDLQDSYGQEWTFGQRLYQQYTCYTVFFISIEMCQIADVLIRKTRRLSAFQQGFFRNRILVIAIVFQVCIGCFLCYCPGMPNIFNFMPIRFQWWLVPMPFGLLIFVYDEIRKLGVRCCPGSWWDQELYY
T1 sequence (P18434 whole entry partner): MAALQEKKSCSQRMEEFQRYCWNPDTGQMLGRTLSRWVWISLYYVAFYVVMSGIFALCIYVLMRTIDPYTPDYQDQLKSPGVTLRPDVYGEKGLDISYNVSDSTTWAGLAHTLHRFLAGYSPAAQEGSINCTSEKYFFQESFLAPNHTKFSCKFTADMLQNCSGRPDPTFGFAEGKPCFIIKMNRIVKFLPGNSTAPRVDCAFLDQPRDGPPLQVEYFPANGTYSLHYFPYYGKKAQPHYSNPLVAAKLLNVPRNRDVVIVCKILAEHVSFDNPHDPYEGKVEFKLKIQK

inhibition at 10 µM (gastric H^+ /K^+ -ATPase; at 10 μM): ~50%
nature of H+/K+-ATPase inhibition (gastric H^+ /K^+ -ATPase; porcine gastric microsomes): both reversibly and specifically
IC50 (gastric H^+ /K^+ -ATPase; porcine gastric microsomes, 37° C., 15 minutes, pH 7.4, read-out: IC50 value range, inhibition of gastric H+/K+-ATPase): 10 to 20 µM
SMILES: CCOC(=O)CCC(=O)c1cnc2c(OC)cccc2c1Nc1ccccc1C [Example 1, 3-(3-ethoxycarbonylpropionyl)-8-methoxy-4-(2-methylphenylamino)quinoline]
minimal effective concentration (osteoclasts; Rattus norvegicus, Osteoclast, overnight incubation, dose-responsive, read-out: concentration level at which statistically significant inhibition of bone resorption occurs): 0.1 µM
inhibition of lacunae formation and bone resorption (in words) (osteoclasts): potent inhibitor of lacunae formation and of resultant bone resorption
